The values that follow come from patent US20180015080A1, “COMPOSITIONS AND METHODS FOR TREATMENT IN PARKINSON'S DISEASE PATIENTS” (priority 2013, published 2018).

The conditions of series [1]: cited from earlier work.
Series [2] concerns PD patients with LIDS. To be noted: patients with idiopathic PD and LIDS, one oral dosage per day, 4 mg/day escalated to 24 mg/day.
From the text: Patients with idiopathic PD and LIDS are enrolled in a clinical study. […] The patient population in this study is typical of those patients with LIDS. Upon randomization of patients for receiving study agent or placebo, there are no statistically significant differences in baseline parameters between the 2 groups.
The study consists of 3 phases: a treatment period, a drug taper period, and a follow-up period. Subjects are randomly assigned to receive either a nicotine salt or placebo (pbo). Treatment is with one oral dosage per day containing a nicotine salt or placebo. […]
Safety is assessed by incidences of adverse experiences (AE), clinical laboratory tests, serum cotinine, ECG and vital signs. Impulsive symptoms are assessed using the Jay Modified Minnesota Impulsive Disorders Interview (JayMidi). Withdrawal symptoms are evaluated using the Minnesota Nicotine Withdrawal Scale (MNWS-R).
Efficacy is assessed using the UPDRS (total of Parts II+III+IV), sum of Q32+Q33, Unified Dyskiensia Rating Scale (UDysRS) total scores and subscores, Lang-Fahn Dyskinesia Acitivties of Daily Living Scale (LF-ADL), CGI-C and PGI-C scales, and responder analyses (subjects with >25% improvement from baseline) on UDysRS total score and LF-ADL, and % subjects with any improvement on PGI-C and CGI-C. […]

As to `N[C@@H](Cc1ccc(O)c(O)c1)C(=O)O` [Levodopa, L-3,4-dihydroxyphenylalanine (S)-2-amino-3-(3,4-dihydroxyphenyl)propanoic acid], in series [1], the solubility in water result was “slightly soluble”.

`CN1CCC[C@H]1c1cccnc1` [nicotine, 3-[(2S)-1-methylpyrrolidin-2-yl]pyridine]: in series [2], the “adverse experiences (AE)” value was “no unexpected AEs occur”. Moreover, the “improvement on patient- and physician-rated outcome measures (UPDRS, UDysRS, LF-ADL, CGI-C, PGI-C) compared to pbo” value in series [2] (majority of outcome measures) was “trend towards statistically significant improvement”.
